In ChEMBL document CHEMBL5120764, “Isarubrolone C Promotes Autophagic Degradation of Virus Proteins via Activating ATG10S in HepG2 Cells” (J Nat Prod, 2022):
Activity calls are given as the source filed them.

Key:
Assay type in all cases: functional, cell-based
[1] = system: HepG2; test: Induction of autophagy in human HepG2 cells transfected with HCV sub-replicon assessed as decrease in HCV-CORE protein level upto 10 uM and measured after 6 hrs by western blot analysis; details: DDE = dose-dependent effect
[2] = system: HepG2; test: Induction of autophagy in human HepG2 cells transfected with HCV sub-replicon assessed as decrease in HCV-NS5B protein level upto 10 uM and measured after 6 hrs by western blot analysis; details: DDE = dose-dependent effect
[3] = system: HepG2; test: Induction of autophagy in human HepG2 cells transfected with HIV-RT assessed as decrease in HIV-RT protein level upto 10 uM and measured after 6 hrs by western blot analysis; details: DDE = dose-dependent effect
[4] = system: HepG2; test: Induction of autophagy in human HepG2 cells co-transfected with ZIKV-NS5 assessed as decrease in ZIKV-NS5 protein level upto 10 uM and measured after 6 hrs by western blot analysis; details: DDE = dose-dependent effect
[5] = system: HepG2; test: Induction of autophagy in human HepG2 cells assessed as […] in LC3B marker expression level upto 10 uM and measured after 6 hrs by western blot analysis; details: DDE = dose-dependent effect
[6] = system: HepG2; test: Effect on HCV-NS5B degradation in human HepG2 cells transfected with HCV sub-replicon at 10 uM pretreated with proteosome inhibitor MG132 for 12 hrs followed by compound addition and measured after 24 hrs by western blot analysis
[7] = system: HepG2; test: Effect on LC3B-II protein degradation in human HepG2 cells at 10 uM pretreated with proteosome inhibitor MG132 for 12 hrs followed by compound addition and measured after 24 hrs by western blot analysis
[8] = system: HepG2; test: Induction of autophagy in human HepG2 cells transfected with HCV subgenomic replicon assessed as HCV-NS5B/LAMP2 combination at 10 uM incubated for 24 hrs in presence of anti-LAMP2 antibodies by co-immunoprecipitation assay
[9] = system: HepG2; test: Induction of autophagy in human HepG2 cells transfected with HCV subgenomic replicon assessed as HCV-NS5B/LC3B combination at 10 uM incubated for 24 hrs in presence of anti-LAMP2 antibodies by co-immunoprecipitation assay
[10] = system: HepG2; test: Induction of autophagy in human HepG2 cells transfected with HCV subgenomic replicon assessed as HCV-CORE/LC3B combination at 10 uM incubated for 24 hrs in presence of anti-LAMP2 antibodies by co-immunoprecipitation assay
[11] = system: HepG2; test: Downregulation of ZIKV-NS5 in human HepG2 cells transfected with ZIKV-NS5 upto 10 uM incubated for 24 hrs by western blot analysis
[12] = system: HepG2; test: Upregulation of endogenous ATG10S activated co-localisation of HBx with LC3B in human HepG2 cells co-transfected with HBx and ATG10-sMO by cellular immunofluorescence assay
[13] = system: HepG2; test: Upregulation of endogenous ATG10S activated co-localisation of HIV-RT with LC3B in human HepG2 cells co-transfected with HIV-RT and ATG10-sMO by cellular immunofluorescence assay
[14] = system: HepG2; test: Upregulation of endogenous ATG10S activated co-localisation of HBx with LAMP2 in human HepG2 cells co-transfected with HBx and ATG10-sMO by cellular immunofluorescence assay
[15] = system: HepG2; test: Upregulation of endogenous ATG10S activated co-localisation of HIV-RT with LAMP2 in human HepG2 cells co-transfected with HIV-RT and ATG10-sMO by cellular immunofluorescence assay
[16] = system: HepG2; test: Upregulation of endogenous ATG10S activated co-localisation of HBx with LAMP2 in human HepG2 cells co-transfected with HBx and ATG10-misMO by cellular immunofluorescence assay
[17] = system: HepG2; test: Upregulation of endogenous ATG10S activated co-localisation of ZIKV-NS5 with LAMP2 in human HepG2 cells co-transfected with ZIKV-NS5 and ATG10-misMO by cellular immunofluorescence assay
[18] = system: HepG2; test: Upregulation of LC3B in human HepG2 cells transfected with HCV sub-replicon and gene knockdown by IL28A morpholinos at 10 uM incubated for 24 hrs by western blot analysis
[19] = system: HepG2; test: Induction of autophagy in human HepG2 cells transfected with HBx assessed as increase in HBx-P62 interaction level at 10 uM incubated for 24 hrs in presence of anti-Flag antibodies by co-immunoprecipitation assay
[20] = system: HepG2; test: Induction of autophagy in human HepG2 cells transfected with ZIKV-NS5 assessed as increase in ZIKV-NS5-LAMP2 interaction level at 10 uM incubated for 24 hrs in presence of anti-Flag antibodies by co-immunoprecipitation assay
[21] = system: HepG2; test: Induction of autophagy in human HepG2 cells transfected with HIV-RT assessed as increase in HIV-RT-LAMP2 interaction level at 10 uM incubated for 24 hrs in presence of anti-Flag antibodies by co-immunoprecipitation assay
[22] = system: HepG2; test: Induction of autophagy in human HepG2 cells transfected with HCV subgenomic replicon assessed as HCV-CORE/LAMP2 combination at 10 uM incubated for 24 hrs in presence of anti-LC3B antibodies by co-immunoprecipitation assay
[23] = system: HepG2; test: Upregulation of ATG10/ATG10S mRNA level in human HepG2 cells transfected with ZIKV-NS5 upto 10 uM by RT-PCR analysis; details: DDE = dose-dependent effect
[24] = system: HepG2; test: Upregulation of endogenous ATG10S activated co-localisation of HCV-NS5B with LAMP2 in human HepG2 cells co-transfected with HCV sub-replicon and ATG10-misMO by cellular immunofluorescence assay
[25] = system: HepG2; test: Upregulation of HBx in human HepG2 cells transfected with HBx and gene knockdown by IL28A morpholinos at 10 uM incubated for 24 hrs by western blot analysis
[26] = system: HepG2; test: Upregulation of LC3B in human HepG2 cells transfected with ZIKV-NS5 and gene knockdown by IL28A morpholinos at 10 uM incubated for 24 hrs by western blot analysis
[27] = system: HepG2; test: Upregulation of ZIKV-NS5 in human HepG2 cells transfected with ZIKV-NS5 and gene knockdown by IL28A morpholinos at 10 uM incubated for 24 hrs by western blot analysis
[28] = system: HepG2; test: Upregulation of LC3B in human HepG2 cells transfected with HIV-RT and gene knockdown by IL28A morpholinos at 10 uM incubated for 24 hrs by western blot analysis
[29] = system: HepG2; test: Induction of autophagy in human HepG2 cells transfected with HCV subgenomic replicon and gene knockdown by IL28A morpholinos assessed as LC3B and LAMP2 interaction at 10 uM incubated for 24 hrs in presence of anti-LC3B antibodies by co-immunoprecipitation assay
[30] = system: HepG2; test: Induction of autophagy in human HepG2 cells transfected with HBV-X and gene knockdown by IL28A morpholinos assessed as LC3B and LAMP2 interaction at 10 uM incubated for 24 hrs in presence of anti-LC3B antibodies by co-immunoprecipitation assay
[31] = system: HepG2; test: Induction of autophagy in human HepG2 cells transfected with HIV-RT and gene knockdown by IL28A morpholinos assessed as LC3B and LAMP2 interaction at 10 uM incubated for 24 hrs in presence of anti-LC3B antibodies by co-immunoprecipitation assay

Measured: Activity

CC[C@@H](O)c1nc(C)cc2c1C(=O)c1cc(=O)c3c(c(O)c1-2)O[C@@H]1O[C@H](C)[C@@H](OC)[C@@H](O)[C@]31O
active: [1] Dde | [2] Dde | [3] Dde | [4] Dde | [5] Dde | [6] | [7] | [8] | [9] | [10] | [11] | [12] | [13] | [14] | [15] | [16] | [17] | [18] | [19] | [20] | [21] | [22] | [23] Dde | [24] | [25] | [26] | [27] | [28] | [29] | [30] | [31]
